Values quoted from earlier work, collected in patent US20200306231A1, “ORAL HYPOGLYCEMIC AGENTS AS FOOD ADDITIVES AND SUPPLEMENTS” (priority 2017, published 2020).

Experiments:
[1] = in vivo
[2] = type 2 diabetes patients followed for 10 years; taking metformin compared with not taking metformin
[3] = neoadjuvant chemotherapy; type 2 diabetes patients taking metformin
[4] = type 2 diabetes
[5] = lung cancer after chemotherapy; type 2 diabetics taking metformin
[6] = ovarian cancer after chemotherapy, type 2 diabetes
[7] = another study
[8] = DPPOS
[9] = type 2 diabetes population; compared with other anti-diabetes drugs

Structure (SMILES)	side effect known to be caused [1]	lower risk of developing any type of cancer [2] [%]	chance of having a complete response (no residual cancer found during surgery) [3] [%]	risk of developing colorectal cancer, greater for those not taking metformin versus those taking metformin [4] [%]	survival greater for those taking metformin versus not taking [4] [%]	overall survival rate [5] [months]	progression free survival [5] [months]	5-year overall survival rate ([6]; metformin users) [%]	progression free survival at 5 years ([6]; taking metformin) [%]	risk reduction for developing prostate cancer (type 2 diabetics taking metformin compared with not taking)	overall survival rate greater, taking metformin versus not taking (type 2 diabetics who have prostate cancer) [%]	improved survival with metformin use [7] [%]	safety and tolerability [8]	weight loss [8]	risk of cardiovascular disease [9]	lifespan (nematodes)	lifespan and health span (mouse model)
COc1ccc2cc3[n+](cc2c1OC)CCc1cc2c(cc1-3)OCO2 [berberine]	constipation	–	–	–	–	–	–	–	–	–	–	–	–	–	–	–	–
CN(C)C(=N)N=C(N)N [metformin]	diarrhea	54	24	200	34	20	8.4	63	51	no risk reduction	45	24	safe and well tolerated	moderate but durable weight loss	decreased risk of cardiovascular disease	extends the lifespan	extends both lifespan and health span
